Numbered stars: 1 amine (or outer) side, 2 acyl side, 3 side chain; on linkers, the order of the positions; unused ones are H or OH. Bridge positions count the residues as written; N and C are the ends. Square brackets hold non-standard residues; d marks the D form. Peptide text beside a SMILES is read from it. TATA = O=C(CC[*:1])N1CN(C(=O)CC[*:2])CN(C(=O)CC[*:3])C1; Cba = N[C@@H](CC1CCC1)C(=O)O; Pen = CC(C)(S)[C@H](N)C(=O)O; Dap = NC[C@H](N)C(=O)O

The target in this experiment is T1, Fc-tagged human NKp46 (Homo sapiens, UniProt O76036).
T1 construct: purchased ACROBiosystems NC1-H5257
T1 sequence (O76036 22-304): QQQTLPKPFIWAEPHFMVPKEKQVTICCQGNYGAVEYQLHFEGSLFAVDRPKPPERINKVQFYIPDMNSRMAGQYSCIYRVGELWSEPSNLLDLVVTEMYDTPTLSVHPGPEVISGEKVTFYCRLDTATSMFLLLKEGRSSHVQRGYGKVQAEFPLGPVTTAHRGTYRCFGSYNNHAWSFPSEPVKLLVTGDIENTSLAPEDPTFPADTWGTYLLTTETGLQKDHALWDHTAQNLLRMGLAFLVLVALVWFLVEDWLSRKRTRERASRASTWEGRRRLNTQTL
As to the kind of experiment: NKp46 SPR assay (Method 1 and/or Method 2). It counts as binding. The note with it: SPR Method 1 and/or Method 2, Table 3B. The procedure:
SPR experiments were performed to determine ka (M^−1s^−1), kd (s^−1), KD (nM) values (where measurable) of various bicyclic peptides to immobilised NKp46.
For analysis of peptide binding to NKp46, a Biacore 3000 instrument was used with a Cytiva Streptavidin chip. Capture of the protein (recombinant human NKp46-Fc fusion biotinylated via Avi-tag) was carried out at 25° C. with HBS-N (10 mM HEPES, 0.15 M NaCl, pH 7.4) as the running buffer and biotinylated NKp46 was captured to a level of 400-800 RU using a dilution of protein to 0.2 μM in buffer. Buffer was then changed to PBS/0.05% Tween 20 and a dilution series of the peptides was prepared in this buffer with a final DMSO concentration of 0.5% with a top peptide concentration of 100 nM-5000 nM and 6 further 2 or 3-fold dilutions. The SPR analysis was run at 25° C. and a flow rate of 50 μl/min with 60 seconds association and 200-400 seconds dissociation time. Data were corrected for DMSO excluded volume effects. All data were double-referenced for blank injections and reference surface using standard processing procedures and data processing and kinetic fitting were performed using Scrubber software, version 2.0c (BioLogic Software). Data were fitted using simple 1:1 binding model allowing for mass transport effects where appropriate.
Peptides were tested against Fc-tagged human NKp46 (ACROBiosystems, cat no. NC1-H5257).
For analysis of peptide binding, a Biacore 8k+ instrument was used with a CM5 chip (Cytiva). All experiments were carried out at 25° C. Anti-human IgG (Fc) antibody (Cytiva) was immobilized on all flow cells by standard amine coupling chemistry. The running buffer was HBS-N(Cytiva, 10 mM HEPES, 0.15 M NaCl, pH 7.4) and the flow rate was 10 μL/min. The carboxymethyl dextran surface was activated with a 1:1 ratio of 0.4 M 1-ethyl-3-(3-dimethylaminopropyl) carbodiimide hydrochloride (EDC)/0.1 M N-hydroxy succinimide (NHS) (Cytiva) for 420s. […] Residual activated groups were blocked with a 420 s injection of 1 M ethanolamine (pH 8.5). The final surface density was 3000-5000 RU. Fc-tagged human NKp46 was diluted to 0.1 μM in HBS-N and was captured on flow cell 2 only of the sensor chip at a flow rate of 10 μL/min to 500-1000 RU. The buffer was then changed to PBS-P+(Cytiva) supplemented with 2% DMSO. […] The flow rate was 50 μL/min with 60 s association and 400 s dissociation. Data were corrected for DMSO volume exclusion effects. All data were double-referenced against blank injections and reference surface response using standard processing procedures. Data processing and kinetic fitting was performed using Biacore Insight Evaluation Software with Extended Screening and Characterization Extension (Cytiva). Data were fitted using steady state affinity 1:1 binding model to determine KD. Data were fitted using kinetic 1:1 binding model to determine kinetic constants where appropriate.
Take `CSCC[C@@H]1NC(=O)[C@@H]2CSCCC(=O)N3CN(CN(C3)C(=O)CCSC[C@H](N)C(=O)N[C@@H](CC(N)=O)C(=O)N[C@@H](CC(C)C)C(=O)N[C@@H](CCC(N)=O)C(=O)N[C@@H](C)C(=O)N3CCC[C@H]3C(=O)N2)C(=O)CCSC[C@@H](C(N)=O)NC(=O)[C@H](C(C)C)NC(=O)[C@H](CCCCN)NC(=O)CNC(=O)[C@H]([C@@H](C)O)NC(=O)[C@H](CC(C)C)NC1=O` [BCY18295, (SEQ ID NO: 4)] (H-CNLQAPCMLTGKVC-NH2; linker 1-7-14 via TATA; C-terminus assumed): the dissociation constant Kd was found to be 6410 nM.
For `CC(C)C[C@@H]1NC(=O)[C@H](Cc2ccc(O)cc2)NC(=O)[C@H](CC(=O)O)NC(=O)[C@@H]2CCCN2C(=O)[C@H](CC(C)C)NC(=O)[C@H](Cc2ccc(O)cc2)NC(=O)[C@@H](NC(=O)[C@H](C)N)CSCCC(=O)N2CN3CN(C2)C(=O)CCSC[C@@H](C(=O)N[C@@H](C)C(N)=O)NC(=O)[C@H](Cc2ccc(O)c(C(C)(C)C)c2)NC(=O)[C@H](CCC(=O)O)NC(=O)[C@H](CC(=O)O)NC(=O)CNC(=O)[C@H](CSCCC3=O)NC1=O` [BCY15652, A-(SEQ ID NO: 109)-A] the value was 44 nM; for `CSCC[C@@H]1NC(=O)[C@@H]2CSCCC(=O)N3CN(CN(C3)C(=O)CCSC[C@H](NC(=O)[C@@H](N)CN)C(=O)N[C@@H](CC(N)=O)C(=O)N[C@@H](CC(C)C)C(=O)N[C@@H](CCC(N)=O)C(=O)N[C@@H](C)C(=O)N3CCC[C@H]3C(=O)N2)C(=O)CCSC[C@@H](C(=O)N[C@@H](C)C(N)=O)NC(=O)[C@H](C(C)C)NC(=O)[C@H](CCCCN)NC(=O)CNC(=O)[C@H]([C@@H](C)O)NC(=O)[C@H](CC(C)C)NC1=O` [BCY19697, Dap-(SEQ ID NO: 4)-A] (H-[Dap]CNLQAPCMLTGKVCA-NH2; linker 2-8-15 via TATA), 3730 nM; for `CSCC[C@@H]1NC(=O)[C@@H]2CSCCC(=O)N3CN(CN(C3)C(=O)CCSC[C@H](NC(=O)[C@@H](N)CCCCN)C(=O)N[C@@H](CC(N)=O)C(=O)N[C@@H](CC(C)C)C(=O)N[C@@H](CCC(N)=O)C(=O)N[C@@H](C)C(=O)N3CCC[C@H]3C(=O)N2)C(=O)CCSC[C@@H](C(=O)N[C@@H](C)C(N)=O)NC(=O)[C@H](C(C)C)NC(=O)[C@H](CCCCN)NC(=O)CNC(=O)[C@H]([C@@H](C)O)NC(=O)[C@H](CC(C)C)NC1=O` [BCY19695, K-(SEQ ID NO: 4)-A] (H-KCNLQAPCMLTGKVCA-NH2; linker 2-8-15 via TATA; N-terminus assumed), 2380 nM.
For `CC[C@H](C)[C@@H]1NC(=O)[C@H]([C@@H](C)CC)NC(=O)[C@@H]2CCCN2C(=O)[C@H](Cc2c[nH]cn2)NC(=O)[C@H]([C@@H](C)O)NC(=O)[C@H](CC(N)=O)NC(=O)[C@@H]2CCCN2C(=O)[C@@H]2CSCCC(=O)N3CN(CN(C3)C(=O)CCSC[C@@H](C(=O)N[C@@H](C)C(N)=O)NC1=O)C(=O)CCSC[C@H](NC(=O)[C@H](C)N)C(=O)N[C@@H](CC(C)C)C(=O)N[C@@H](CC(C)C)C(=O)N[C@@H](Cc1c[nH]cn1)C(=O)N[C@@H](CC(=O)O)C(=O)N[C@@H](Cc1c[nH]cn1)C(=O)N2` [BCY15106, A-(SEQ ID NO: 8)-A] (H-ACLLHDHCPNTHPIICA-NH2; linker 2-8-16 via TATA) the value was 2670 nM; for `CC[C@H](C)[C@@H]1NC(=O)CNC(=O)[C@H](Cc2c[nH]c3ccccc23)NC(=O)[C@H](C(C)C)NC(=O)[C@@H]2CSCCC(=O)N3CN(CN(C3)C(=O)CCSC[C@@H](C(=O)N[C@@H](C)C(N)=O)NC1=O)C(=O)CCSC[C@H](NC(=O)[C@H](C)N)C(=O)N[C@@H](CC(=O)O)C(=O)N[C@@H](CC(C)C)C(=O)N[C@@H]([C@@H](C)O)C(=O)N[C@@H]([C@@H](C)O)C(=O)N[C@@H](Cc1c[nH]cn1)C(=O)N[C@@H](CC(N)=O)C(=O)N2` [BCY18285, A-(SEQ ID NO: 128)-A] (H-ACDLTTHNCVWGICA-NH2; linker 2-9-14 via TATA; N-terminus and C-terminus assumed), 3760 nM; for `CSCC[C@@H]1NC(=O)[C@@H]2CSCCC(=O)N3CN(CN(C3)C(=O)CCSC[C@@H](C(=O)N[C@@H](C)C(N)=O)NC(=O)[C@H](C(C)C)NC(=O)[C@H](CCCCN)NC(=O)CNC(=O)[C@H](C)NC(=O)[C@H](CC(C)C)NC1=O)C(=O)CCSC[C@H](NC(=O)[C@H](C)N)C(=O)N[C@@H](CC(N)=O)C(=O)N[C@@H](CC(C)C)C(=O)N[C@@H](CCC(N)=O)C(=O)N[C@@H](C)C(=O)N1CCC[C@H]1C(=O)N2` [BCY18302, A-(SEQ ID NO: 66)-A] (H-ACNLQAPCMLAGKVCA-NH2; linker 2-8-15 via TATA; N-terminus assumed), 5380 nM.
For `CC(C)C[C@@H]1NC(=O)[C@H](CC(N)=O)NC(=O)[C@@H](NC(=O)[C@H](C)N)CSCCC(=O)N2CN3CN(C2)C(=O)CCSC[C@H](NC(=O)[C@@H]2CCCN2C(=O)[C@H](C)NC(=O)[C@H](CCC(N)=O)NC1=O)C(=O)N[C@@H](CC(C)C)C(=O)N[C@@H](Cc1c[nH]cn1)C(=O)N[C@@H]([C@@H](C)O)C(=O)NCC(=O)N[C@@H](CCCCN)C(=O)N[C@@H](C(C)C)C(=O)N[C@H](C(=O)N[C@@H](C)C(N)=O)CSCCC3=O` [BCY19712, A-(SEQ ID NO: 101)-A] (H-ACNLQAPCLHTGKVCA-NH2; linker 2-8-15 via TATA; C-terminus assumed) the value was 3140 nM; for `CSCC[C@@H]1NC(=O)[C@@H]2CSCCC(=O)N3CN(CN(C3)C(=O)CCSC[C@@H](C(=O)N[C@@H](C)C(N)=O)NC(=O)[C@H](C(C)C)NC(=O)[C@H](CCCCN)NC(=O)CNC(=O)[C@H]([C@@H](C)O)NC(=O)[C@H](C(C)C)NC1=O)C(=O)CCSC[C@H](NC(=O)[C@H](C)N)C(=O)N[C@@H](CC(N)=O)C(=O)N[C@@H](CC(C)C)C(=O)N[C@@H](CCC(N)=O)C(=O)N[C@@H](C)C(=O)N1CCC[C@H]1C(=O)N2` [BCY19702, A-(SEQ ID NO: 93)-A] (H-ACNLQAPCMVTGKVCA-NH2; linker 2-8-15 via TATA; N-terminus assumed), 2680 nM; for `CC(=O)N[C@H]1CSCCC(=O)N2CN3CN(C2)C(=O)CCSC(C)(C)[C@@H](C(N)=O)NC(=O)[C@H](Cc2ccc(O)cc2)NC(=O)[C@H](CCC(=O)O)NC(=O)[C@H](CC(=O)O)NC(=O)[C@@H](C)NC(=O)[C@H](CSCCC3=O)NC(=O)[C@H](CC(C)C)NC(=O)[C@H](Cc2ccc(O)cc2)NC(=O)[C@H](CC(=O)O)NC(=O)[C@@H]2CCCN2C(=O)[C@H](CC2CCC2)NC(=O)[C@H](Cc2ccc(O)cc2)NC1=O` [BCY19691, Ac-(SEQ ID NO: 155)] (Ac-CY[Cba]PDYLC[dA]DEY[Pen]-NH2; linker 1-8-13 via TATA), more than 500 nM.
For `CSCC[C@@H]1NC(=O)[C@@H]2CSCCC(=O)N3CN(CN(C3)C(=O)CCSC[C@@H](C(=O)N[C@@H](C)C(N)=O)NC(=O)[C@@H]3CCCN3C(=O)[C@H](Cc3ccccc3)NC(=O)[C@H](CCCCN)NC1=O)C(=O)CCSC[C@H](NC(=O)[C@H](C)N)C(=O)N[C@@H](CC(N)=O)C(=O)N[C@@H](CC(C)C)C(=O)N[C@@H](CCC(N)=O)C(=O)N[C@@H](CC(N)=O)C(=O)N1CCC[C@H]1C(=O)N2` [BCY15102, A-(SEQ ID NO: 2)-A] (H-ACNLQNPCMKFPCA-NH2; linker 2-8-13 via TATA; C-terminus assumed), the Kd is 1090 ± 99 nM.
For `CC[C@H](C)[C@@H]1NC(=O)CNC(=O)[C@H](Cc2c[nH]c3ccccc23)NC(=O)[C@H](CCC(N)=O)NC(=O)[C@@H]2CSCCC(=O)N3CN(CN(C3)C(=O)CCSC[C@@H](C(=O)N[C@@H](C)C(N)=O)NC1=O)C(=O)CCSC[C@H](NC(=O)[C@H](C)N)C(=O)N[C@@H](CC(=O)O)C(=O)N[C@@H](CC(C)C)C(=O)N[C@@H](C)C(=O)N[C@@H]([C@@H](C)O)C(=O)N[C@@H](Cc1c[nH]cn1)C(=O)N[C@@H](CC(N)=O)C(=O)N2` [BCY18265, A-(SEQ ID NO: 117)-A] (H-ACDLATHNCQWGICA-NH2; linker 2-9-14 via TATA; C-terminus assumed) the value was 1480 nM.

The term Kd denotes the constant that tells how readily two partners part at equilibrium. A high value points to a looser complex.

For the origin of these results see patent US20240108738A1, “BICYCLIC PEPTIDE LIGANDS SPECIFIC FOR NK CELLS” (Bicycle Tx Limited, priority 2021, published 2024).
